Laboratory results: patent publication US20030130355A1, “Therapeutic agents” (priority 2000, published 2003)

Columns and labels:
rats = details: cited from earlier work
[1] = tested on: conscious, telemetered rats; format: in vivo, rat
From the text: The methods used were similar to those described in:
Brockway, B P, Mills, P A & Azar, S H (1991) A new method for continuous chronic measurement of blood pressure, heart rate and activity in the rat via radio-telemetry. Clinical and Experimental Hypertension—Theory and Practice A13(5), 885-895 and
Guiol, C, Ledoussal, C & Surgé, J-M (1992) A radiotelemetry system for chronic measurement of blood pressure and heart rate in the unrestrained rat. Validation of method. Journal of Pharmacological and Toxicological Methods 28, 99-105.
In brief, male rats (n=10) were implanted with a telemetry device for the measurement of arterial blood pressure and heart rate. Two weeks following implantation each animal received a single oral dose of vehicle, one dose of sibutramine or a combination of sibutramine and flesinoxan in a cross-over design. Measurements of blood pressure and heart rate were taken from each rat in sequence every three minutes for nine hours following drug administration and averaged into appropriate time-bins. Statistical comparisons were by the least significant difference or multiple t-test.
In FIGS. 1 and 2, shaded circles relate to the administration of vehicle alone p.o., shaded squares relate to the administration of sibutramine at 10 mg/kg p.o. and shaded triangles relate to the administration of sibutramine at 10 mg/kg p.o. together with flesinoxan at 30 mg/kg p.o. Statistical comparisons made by the least significant difference or multiple t-test are shown as *=p<0.05 versus vehicle and t=p<0.05 versus sibutramine.

## CCCN(CCC)C1CCc2cccc(O)c2C1 (centres unmarked) [8-OH-DPAT]
rats
  food intake: increases food intake

## O=C(NCCN1CCN(c2cccc3c2OC[C@H](CO)O3)CC1)c1ccc(F)cc1 [flesinoxan]
[1]; flesinoxan 30 mg/kg p.o. co-administered with sibutramine 10 mg/kg p.o., FIG. 1
  effect on the increase in mean arterial blood pressure induced by sibutramine: completely reversed
[1]; flesinoxan 30 mg/kg p.o. co-administered with sibutramine 10 mg/kg p.o., FIG. 2
  effect on the increase in heart rate produced by sibutramine: prevented the increase in heart rate

## CC(C)CC(N(C)C)C1(c2ccc(Cl)cc2)CCC1 (centres unmarked) [sibutramine, N-{1-[1-(4-chlorophenyl)cyclobutyl]-3-methylbutyl}-N,N-dimethylamine]
[1]; sibutramine 10 mg/kg p.o. alone, versus vehicle, conscious telemetered male rats, nine hours, FIG. 1
  mean arterial blood pressure: significant increase
[1]; sibutramine 10 mg/kg p.o. alone, conscious telemetered rats, FIG. 2
  heart rate: increase in heart rate
